Laboratory results as given in US7202280B2, “Methods for the treatment and prevention of pancreatitis and for induction of liver regeneration” (priority 2002, dated 2007).

How the values were obtained:
SSAT transgenic rats = experiment: Stability of the analogues in the liver of SSAT transgenic rats without or with MDL72527 (hepatic polyamine pools); format: in vivo, rat; conditions: for metabolic stability / conversion in the liver in vivo: without MDL72527
Procedure: FIGS. 8A-8D. Hepatic polyamine pools in SSAT transgenic rats treated with methylated polyamine analogues without or with MDL72527. The rats were injected twice with MDL72527 (50 mg/kg i.p.) at 16-h interval. The polyamine analogues (25 mg/kg i.p.) were injected 2 and 8 h later. The animals were sacrificed 24 h after the last MDL72527 injection. There were three to four animals in each group. Put, putrescine; […] Spd, spermidine; Me-Spd, α-methylspermidine; […] The production of transgenic Wistar rats (UKUR30) and mice (UKU181) harboring metallothionein-SSAT fusion gene (Suppola, […]., Porter, C. W., and Jänne, J. (1999) Biochem. […] (2000) Proc. Natl. Acad. Sci. U.S.A. 97, 8290-8295; Lukkarinen, […]., and Alhonen, L. (1997) Stroke 28, 639-645). Partial hepatectomy was carried out according to the original method of Higgins and Anderson (Higgins, G. H., and Anderson, R. M. (1931) Arch. Pathol. 12, 186-202). Treatments before partial hepatectomy and the determination of DNA synthesis were carried out as in ([…]., Suppola, […]., and […]. Biol. Chem. 277, 39867-39872). Transgenic 10 weeks old male rats were injected twice with MDL72527 (50 mg/kg i.p.) at 16-h interval to inactivate PAO according to (Bolkenius, F. N., Bey, P., and Seiler, N. (1985) Biochim. Biophys. […] An aliquot of the homogenates was used for the polyamine assays. The homogenates were centrifuged (at 13 000×g, for 30 min, at 4° C.) and the supernatants were used for the enzyme activity assays. The Institutional Animal Care and Use Committee of the University of Kuopio and by the Provincial Government approved animal experiments. […] Merck (Darmstadt, Germany).

[1] = tested on: syngenic and UKU181 transgenic mice; experiment: Plasma α-amylase and ALAT in syngenic and transgenic mice after analogue injection; format: in vivo, mouse
Procedure: (§1) α-methylspermidine, Bis-α-methylspermine and α-methylspermine were administered in saline. […] The data are expressed as means ±S.D. For statistical analysis, the two-tailed Student's t test was used.

SSAT = experiment: Hepatic, pancreatic and renal SSAT activity in syngenic and metallothionein-SSAT mice after analogue; format: in vivo, mouse
Procedure: as §1

[2] = Sg (syngenic) mice, 12.5 mg/kg, 24 h before sacrifice
[3] = Sg (syngenic) mice, 25 mg/kg, 24 h before sacrifice
[4] = Sg (syngenic) mice, 37.5 mg/kg, 24 h before sacrifice
[5] = Sg (syngenic) mice, 50 mg/kg, 24 h before sacrifice
[6] = Tg (transgenic) mice, 12.5 mg/kg, 24 h before sacrifice
[7] = Tg (transgenic) mice, 25 mg/kg, 24 h before sacrifice
[8] = Tg (transgenic) mice, 37.5 mg/kg, 24 h before sacrifice
[9] = Tg (transgenic) mice, 50 mg/kg, 24 h before sacrifice

SMILES: CC(N)CCNCCCCNCCC(C)N (stereo not drawn) [bis-α-methylspermine, 1,12-dimethylspermine]
- metabolic stability / conversion in the liver in vivo (SSAT transgenic rats; 25 mg/kg i.p. twice): converted to α-methylspermidine, but less effectively than α-methylspermine
- conversion to α-methylspermidine in the liver (SSAT transgenic rats; with MDL72527 50 mg/kg i.p. twice): totally prevented
- Plasma ALAT [1, 2]: 49.33 U/dm^3
- Plasma α-amylase [1, 2]: 3167.33 U/dm^3
- Plasma ALAT [1, 3]: 57.67 U/dm^3
- Plasma α-amylase [1, 3]: 2931.00 U/dm^3
- Plasma ALAT [1, 4]: 35.67 U/dm^3
- Plasma α-amylase [1, 4]: 2827.00 U/dm^3
- Plasma ALAT [1, 5]: 62.00 U/dm^3
- Plasma α-amylase [1, 5]: 2715.33 U/dm^3
- Plasma ALAT [1, 6]: 50.67 U/dm^3
- Plasma α-amylase [1, 6]: 2822.67 U/dm^3
- Plasma ALAT [1, 7]: 45.33 U/dm^3
- Plasma α-amylase [1, 7]: 3242.33 U/dm^3
- Plasma ALAT [1, 8]: 31.00 U/dm^3
- Plasma α-amylase [1, 8]: 2540.00 U/dm^3
- Plasma ALAT [1, 9]: 60.00 U/dm^3
- Plasma α-amylase [1, 9]: 2886.00 U/dm^3
- SSAT activity, Kidney (SSAT; [2]): 0.32 ± 0.14 ^++ pmoles/10 min/ tissue wet weight
- SSAT activity, Pancreas (SSAT; [2]): 3.38 pmoles/10 min/ tissue wet weight
- SSAT activity, Kidney (SSAT; [3]): 0.58 ± 0.43 ^+ pmoles/10 min/ tissue wet weight
- SSAT activity, Pancreas (SSAT; [3]): 4.23 pmoles/10 min/ tissue wet weight
- SSAT activity, Kidney (SSAT; [4]): 0.33 ± 0.14 ^+ pmoles/10 min/ tissue wet weight
- SSAT activity, Pancreas (SSAT; [4]): 3.18 pmoles/10 min/ tissue wet weight
- SSAT activity, Kidney (SSAT; [5]): 0.60 ± 0.19 ^+ pmoles/10 min/ tissue wet weight
- SSAT activity, Pancreas (SSAT; [5]): 8.44 pmoles/10 min/ tissue wet weight
- SSAT activity, Kidney (SSAT; [6]): 0.72 ± 0.24 pmoles/10 min/ tissue wet weight
- SSAT activity, Liver (SSAT; [6]): 6.56 pmoles/10 min/ tissue wet weight
- SSAT activity, Pancreas (SSAT; [6]): 34.11 pmoles/10 min/ tissue wet weight
- SSAT activity, Kidney (SSAT; [7]): 1.48 ± 0.92 pmoles/10 min/ tissue wet weight
- SSAT activity, Liver (SSAT; [7]): 9.08 pmoles/10 min/ tissue wet weight
- SSAT activity, Pancreas (SSAT; [7]): 65.20 pmoles/10 min/ tissue wet weight
- SSAT activity, Kidney (SSAT; [8]): 8.04 ± 14.36 pmoles/10 min/ tissue wet weight
- SSAT activity, Liver (SSAT; [8]): 55.79 pmoles/10 min/ tissue wet weight
- SSAT activity, Pancreas (SSAT; [8]): 124.95 pmoles/10 min/ tissue wet weight
- SSAT activity, Kidney (SSAT; [9]): 1.24 ± 0.39 pmoles/10 min/ tissue wet weight
- SSAT activity, Liver (SSAT; [9]): 13.11 pmoles/10 min/ tissue wet weight
- SSAT activity, Pancreas (SSAT; [9]): 62.05 pmoles/10 min/ tissue wet weight

SMILES: CC(N)CCNCCCCN (stereo not drawn) [α-methylspermidine, 1-methylspermidine]
- accumulation in the liver (tissue concentration) (SSAT transgenic rats; 25 mg/kg i.p. twice): highest tissue concentrations
- metabolic stability / conversion in the liver in vivo (SSAT transgenic rats; 25 mg/kg i.p. twice): metabolically stable
- Plasma ALAT ([1]; Sg mice, 50 mg/kg, 24 h): 17.90 U/dm^3
- Plasma α-amylase ([1]; Sg mice, 50 mg/kg, 24 h, not corrected constant): 266.76 ± 23.00 ^+ U/dm^3
- Plasma ALAT ([1]; Sg mice, 100 mg/kg, 24 h): 19.21 U/dm^3
- Plasma α-amylase ([1]; Sg mice, 100 mg/kg, 24 h, not corrected constant): 281.81 ± 24.11 U/dm^3
- Plasma ALAT ([1]; Sg mice, 150 mg/kg, 24 h): 18.33 U/dm^3
- Plasma α-amylase ([1]; Sg mice, 150 mg/kg, 24 h, not corrected constant): 284.83 ± 26.90 U/dm^3
- Plasma ALAT ([1]; Sg mice, 250 mg/kg, 24 h): 66.00 U/dm^3
- Plasma α-amylase ([1]; Sg mice, 250 mg/kg, 24 h, not corrected constant): 287.41 ± 74.99 U/dm^3
- Plasma ALAT ([1]; Sg mice, 375 mg/kg, 24 h): 111.39 U/dm^3
- Plasma α-amylase ([1]; Sg mice, 375 mg/kg, 24 h, not corrected constant): 654.32 ± 402.95 U/dm^3
- Plasma ALAT ([1]; Sg mice, 500 mg/kg, 24 h): 32.74 U/dm^3
- Plasma α-amylase ([1]; Sg mice, 500 mg/kg, 24 h, not corrected constant): 370.45 ± 104.58 U/dm^3
- Plasma ALAT ([1]; Tg mice, 50 mg/kg, 24 h): 34.92 U/dm^3
- Plasma α-amylase ([1]; Tg mice, 50 mg/kg, 24 h, not corrected constant): 341.62 ± 44.99 U/dm^3
- Plasma ALAT ([1]; Tg mice, 100 mg/kg, 24 h): 44.96 U/dm^3
- Plasma α-amylase ([1]; Tg mice, 100 mg/kg, 24 h, not corrected constant): 302.90 ± 29.54 U/dm^3
- Plasma ALAT ([1]; Tg mice, 150 mg/kg, 24 h): 41.90 U/dm^3
- Plasma α-amylase ([1]; Tg mice, 150 mg/kg, 24 h, not corrected constant): 275.79 ± 34.37 U/dm^3
- Plasma ALAT ([1]; Tg mice, 250 mg/kg, 24 h): 34.05 U/dm^3
- Plasma α-amylase ([1]; Tg mice, 250 mg/kg, 24 h, not corrected constant): 389.38 ± 213.31 U/dm^3
- Plasma ALAT ([1]; Tg mice, 375 mg/kg, 24 h): 52.38 U/dm^3
- Plasma α-amylase ([1]; Tg mice, 375 mg/kg, 24 h, not corrected constant): 314.51 ± 20.72 U/dm^3
- SSAT activity, Kidney (SSAT; Sg mice, 50 mg/kg, 24 h): 4.98 pmoles/10 min/mg tissue wet weight
- SSAT activity, Liver (SSAT; Sg mice, 50 mg/kg, 24 h): 3.74 pmoles/10 min/mg tissue wet weight
- SSAT activity, Pancreas (SSAT; Sg mice, 50 mg/kg, 24 h): 6.58 pmoles/10 min/mg tissue wet weight
- SSAT activity, Kidney (SSAT; Sg mice, 100 mg/kg, 24 h): 4.61 pmoles/10 min/mg tissue wet weight
- SSAT activity, Liver (SSAT; Sg mice, 100 mg/kg, 24 h): 3.77 pmoles/10 min/mg tissue wet weight
- SSAT activity, Pancreas (SSAT; Sg mice, 100 mg/kg, 24 h): 7.50 pmoles/10 min/mg tissue wet weight
- SSAT activity, Kidney (SSAT; Sg mice, 150 mg/kg, 24 h): 5.05 pmoles/10 min/mg tissue wet weight
- SSAT activity, Liver (SSAT; Sg mice, 150 mg/kg, 24 h): 4.16 pmoles/10 min/mg tissue wet weight
- SSAT activity, Pancreas (SSAT; Sg mice, 150 mg/kg, 24 h): 6.91 pmoles/10 min/mg tissue wet weight
- SSAT activity, Liver (SSAT; Sg mice, 250 mg/kg, 24 h): 3.75 pmoles/10 min/mg tissue wet weight
- SSAT activity, Pancreas (SSAT; Sg mice, 250 mg/kg, 24 h): 12.10 pmoles/10 min/mg tissue wet weight
- SSAT activity, Liver (SSAT; Sg mice, 375 mg/kg, 24 h): 9.52 pmoles/10 min/mg tissue wet weight
- SSAT activity, Pancreas (SSAT; Sg mice, 375 mg/kg, 24 h): 18.19 pmoles/10 min/mg tissue wet weight
- SSAT activity, Kidney (SSAT; Sg mice, 500 mg/kg, 24 h): 14.67 pmoles/10 min/mg tissue wet weight
- SSAT activity, Liver (SSAT; Sg mice, 500 mg/kg, 24 h): 16.06 pmoles/10 min/mg tissue wet weight
- SSAT activity, Pancreas (SSAT; Sg mice, 500 mg/kg, 24 h): 26.85 pmoles/10 min/mg tissue wet weight
- SSAT activity, Kidney (SSAT; Tg mice, 50 mg/kg, 24 h): 3.19 pmoles/10 min/mg tissue wet weight
- SSAT activity, Liver (SSAT; Tg mice, 50 mg/kg, 24 h): 74.88 pmoles/10 min/mg tissue wet weight
- SSAT activity, Pancreas (SSAT; Tg mice, 50 mg/kg, 24 h): 179.02 pmoles/10 min/mg tissue wet weight
- SSAT activity, Kidney (SSAT; Tg mice, 100 mg/kg, 24 h): 3.13 pmoles/10 min/mg tissue wet weight
- SSAT activity, Liver (SSAT; Tg mice, 100 mg/kg, 24 h): 74.88 pmoles/10 min/mg tissue wet weight
- SSAT activity, Pancreas (SSAT; Tg mice, 100 mg/kg, 24 h): 226.27 pmoles/10 min/mg tissue wet weight
- SSAT activity, Kidney (SSAT; Tg mice, 150 mg/kg, 24 h): 3.36 pmoles/10 min/mg tissue wet weight
- SSAT activity, Liver (SSAT; Tg mice, 150 mg/kg, 24 h): 81.59 pmoles/10 min/mg tissue wet weight
- SSAT activity, Pancreas (SSAT; Tg mice, 150 mg/kg, 24 h): 183.078 pmoles/10 min/mg tissue wet weight
- SSAT activity, Liver (SSAT; Tg mice, 250 mg/kg, 24 h): 95.04 pmoles/10 min/mg tissue wet weight
- SSAT activity, Pancreas (SSAT; Tg mice, 250 mg/kg, 24 h): 188.45 pmoles/10 min/mg tissue wet weight
- SSAT activity, Liver (SSAT; Tg mice, 375 mg/kg, 24 h): 135.53 pmoles/10 min/mg tissue wet weight
- SSAT activity, Pancreas (SSAT; Tg mice, 375 mg/kg, 24 h): 133.57 pmoles/10 min/mg tissue wet weight
